Where two headings read alike, the source gives them in different places.
Test system: SYK-mediated BCR signaling
Assay: Whole blood BCR signaling assay after oral dosing (pSYK Y525/526, pERK Y204, pAKT S473)
Type: cell-based, human
Conditions: for IC50: Homo sapiens
Method: For PD assessments, serial blood samples were drawn into lithium-heparin vacutainer tubes on Day 1 prior to dosing and again at 0.5, 1, 2, and 4 hours post-dose; on Day 8 at pre-dose and 2 hours post-dose; and Day 28 prior to dosing. Multiple assays were performed using the Day 1 and Day 8 PD samples. SYK-mediated BCR signaling in whole blood was measured prior to and post-dosing by stimulating 100 μL whole blood with 2 μL of anti-human IgD (IgG fraction) and 10 μg anti-human IgM for 10 minutes at 37° C., measuring the induction of pSYK Y525/526, pAKT S473, and pERK Y204. Similarly, whole blood was stimulated with 10 ng/mL of IL-2 (JAK1/3-dependent), IL-4 (JAK1/3-dependent), IL-6 (JAK1/TYK2-dependent) or GM-CSF (JAK2-dependent) for 20 minutes, measuring the induction of pSTAT5 Y694 in T-cells and NK cells, the induction of pSTAT6 Y641 in B cells, T-cells, NK cells, and monocytes, the induction of pSTAT3 Y705 in monocytes, B cells, and T-cells, and the induction of pSTAT5 Y694 in monocytes, respectively. […] With blood samples from the CLL patients only, tumor cell surface expression of CD5, CD69, CD86, and CXCR4 pre-dose on days 1 and 28 were monitored. […] For each assay, data were collected using an LSR II instrument (BD Bioscience, San Jose, Calif.) and analyzed using Flowjo software (Flowjo LLC, Ashland, Oreg.). […]
The data were analyzed using the statistical language R and the accessory packages ggplot2 (Wickham, H., Elegant Graphics for Data Analysis. 2016: Springer-Verlag) and drc (Ritz, C., et al., Dose-Response Analysis Using R. PLoS One, 2015. 10(12): p. e0146021). For cell signaling assays, percent inhibition was determined by normalizing the receptor-induced phosphorylation events mean fluorescent intensity (MFI) to that of pre-dose receptor-induced MFI. The resulting relative activities were analyzed by nonlinear regression to a 3-parameter log-logistic function with an upper and lower limit set at 100 and 0%. […] The significance of the relation between maximum tumor response and change in a specific biomarker was evaluated using Spearman-Rank-correlation and p value.

CCS(=O)(=O)N1CCN(c2ccc(Nc3ncc(C(N)=O)c(NC4CC4)n3)cc2)CC1 [cerdulatinib, 4-(cyclopropylamino)-2-((4-(4-(ethylsulfonyl)piperazin-1-yl)phenyl)amino)pyrimidine-5-carboxamide]
IC50 (po, estimated from PK/PD relationships, whole blood, read-out: IC50, measures of BCR-signaling): 330 to 730 nM | IC50 (following oral dosing, lower and upper limit confidence intervals for ERK and AKT, read-out: IC50 against BCR signaling): 170 to 740 nM | inhibition of BCR-induced pSYK Y525/526, pERK Y204 and pAKT S473 (at tolerated exposures): High level inhibition

Reference: US11266645B2, “Methods for treating lymphoma” (Alexion Pharmaceuticals, Inc., priority 2018, dated 2022)
